Legend:
H69AR cells = assay: CellTiter-Glo cell viability assay (cytotoxicity), H69AR; assay type: cell-based; settings: Homo sapiens, 48 h, MRP1-expressing, mean ± SEM
Experimental: (§1) The human lung adenocarcinoma cell line A549 was cultured in DMEM medium supplemented with 10% fetal bovine serum (FBS), 100 U/mL penicillin and 100 μg/mL streptomycin. P-gp-expressing human colon adenocarcinoma cells HCT-15 were cultured in RPMI 1640 medium supplemented with 10% FBS, 100 U/mL penicillin and 100 μg/mL streptomycin. BCRP-expressing MCF-7/MX human breast adenocarcinoma cells were cultured in DMEM medium supplemented with 10% FBS, 100 U/mL penicillin and 100 μg/mL streptomycin. MRP1-expressing H69AR human small cell lung cancer cells were cultured in RPMI 1640 medium (ATCC modification) supplemented with 20% FBS, 100 U/mL penicillin and 100 μg/mL streptomycin. All cancer cell lines employed have been systematically characterized regarding their respective ABC transporter expression profile ([Sachs et al., 2019]).
(§2) Cytotoxic activity of test compounds was analyzed after 48 h using the CellTiter-Glo Luminescent Cell Viability Assay published previously ([Weber et al., 2017]) in 384-well plates with the following cell densities: A549, MCF-7/MX: 2 × 10^3 cells/well; HCT-15: 3 × 10^3 cells/well; H69AR: 5 × 10^3 cells/well. Pipetting was conducted with the CyBi-Well 96-channel simultaneous pipettor (Analytik Jena AG, Jena, Germany). For generation of dose-response curves and calculation of IC50 values, the four-parameter logistic model was applied.

BCRP = target: T1, BCRP (Homo sapiens, UniProt Q9UNQ0); assay: BCRP transport assay (Hoechst 33342) in MCF-7/MX cells; assay type: cell-based
T1 construct: endogenous in cells; host or cells: MCF-7/MX human breast adenocarcinoma cells (mitoxantrone-selected)
T1 sequence (Q9UNQ0 1-655): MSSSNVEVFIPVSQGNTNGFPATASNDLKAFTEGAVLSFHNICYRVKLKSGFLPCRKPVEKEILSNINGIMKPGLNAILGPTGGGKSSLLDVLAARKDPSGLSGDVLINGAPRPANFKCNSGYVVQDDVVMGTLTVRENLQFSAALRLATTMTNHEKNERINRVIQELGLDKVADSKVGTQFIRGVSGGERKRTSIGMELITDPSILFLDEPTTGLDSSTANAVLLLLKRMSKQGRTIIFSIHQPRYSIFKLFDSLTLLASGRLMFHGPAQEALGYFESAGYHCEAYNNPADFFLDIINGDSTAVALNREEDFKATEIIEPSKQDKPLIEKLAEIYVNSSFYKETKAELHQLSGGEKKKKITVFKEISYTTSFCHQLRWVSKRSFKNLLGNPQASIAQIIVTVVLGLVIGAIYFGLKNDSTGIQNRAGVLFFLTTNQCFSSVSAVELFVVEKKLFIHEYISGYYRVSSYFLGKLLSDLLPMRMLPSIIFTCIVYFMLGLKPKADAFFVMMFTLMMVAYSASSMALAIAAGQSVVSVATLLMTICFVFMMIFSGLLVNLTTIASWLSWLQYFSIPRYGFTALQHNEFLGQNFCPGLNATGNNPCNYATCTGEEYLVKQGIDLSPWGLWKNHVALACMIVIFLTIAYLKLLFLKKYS
Experimental: Breast cancer resistance protein transport activity was determined in the BCRP-expressing MCF-7/MX cell line. Hoechst 33342 was applied as transporter substrate and 1 μM Ko143 as positive control or 0.5% DMSO as negative control and the assay was performed according to the P-gp assay. Fluorescence was measured at an excitation wavelength of 355 nm and emission wavelength of 460 nm. The transport activity of BCRP was analyzed by determining the plateau of the fluorescence-time curve by using non-linear regression (one-phase exponential fit). Normalization of the data to Ko143 (100% inhibition) and DMSO (0% inhibition) was performed.

A549 cells = assay: CellTiter-Glo cell viability assay (cytotoxicity), A549; assay type: cell-based, human; settings: for IC50: Homo sapiens, A549, 48 h, mean ± SEM
Experimental: as §1, §2

MCF-7/MX cells = assay: CellTiter-Glo cell viability assay (cytotoxicity), MCF-7/MX; assay type: cell-based; settings: Homo sapiens, MCF7/MX; 48 h, BCRP-expressing, mean ± SEM
Experimental: as §1, §2

HCT-15 cells = assay: CellTiter-Glo cell viability assay (cytotoxicity), HCT-15; assay type: cell-based; settings: Homo sapiens, 48 h, P-gp expressing, mean ± SEM
Experimental: as §1, §2

P-gp = target: T2, P-gp (Homo sapiens, UniProt P08183); assay: P-gp transport assay (calcein-AM) in HCT-15 cells; assay type: cell-based
T2 construct: endogenous in cells; host or cells: HCT-15 human colon adenocarcinoma cells
Experimental: The transport of calcein-AM by P-gp and its modulation by test compounds was analyzed in the P-gp-expressing HCT-15 cell line. 5 × 10^4 cells were seeded in black 96-well plates and incubated at 37°C and 5% CO2 for 24 h. The culture medium was removed and replaced by Hank’s balanced salt solution supplemented with 10 mM HEPES. Test compounds, 2.5 μM PSC833 (positive control) or 0.5% DMSO (negative control) were added in triplicates and incubated for 30 min at 37°C and 5% CO2. The substrate calcein-AM was added (final concentration 0.5 μM) and the fluorescence (excitation 485 nm, emission 520 nm) was measured over 3 h with the Infinite m1000 pro microplate reader (Tecan Group AG, Männedorf, Switzerland) at 37°C. The transport activity of P-gp was analyzed by determining the slope of the linear part of the fluorescence-time curve (0–30 min) using linear regression. Normalization of the data to PSC833 (100% inhibition) and DMSO (0% inhibition) was performed.

T2 sequence (P08183 whole entry): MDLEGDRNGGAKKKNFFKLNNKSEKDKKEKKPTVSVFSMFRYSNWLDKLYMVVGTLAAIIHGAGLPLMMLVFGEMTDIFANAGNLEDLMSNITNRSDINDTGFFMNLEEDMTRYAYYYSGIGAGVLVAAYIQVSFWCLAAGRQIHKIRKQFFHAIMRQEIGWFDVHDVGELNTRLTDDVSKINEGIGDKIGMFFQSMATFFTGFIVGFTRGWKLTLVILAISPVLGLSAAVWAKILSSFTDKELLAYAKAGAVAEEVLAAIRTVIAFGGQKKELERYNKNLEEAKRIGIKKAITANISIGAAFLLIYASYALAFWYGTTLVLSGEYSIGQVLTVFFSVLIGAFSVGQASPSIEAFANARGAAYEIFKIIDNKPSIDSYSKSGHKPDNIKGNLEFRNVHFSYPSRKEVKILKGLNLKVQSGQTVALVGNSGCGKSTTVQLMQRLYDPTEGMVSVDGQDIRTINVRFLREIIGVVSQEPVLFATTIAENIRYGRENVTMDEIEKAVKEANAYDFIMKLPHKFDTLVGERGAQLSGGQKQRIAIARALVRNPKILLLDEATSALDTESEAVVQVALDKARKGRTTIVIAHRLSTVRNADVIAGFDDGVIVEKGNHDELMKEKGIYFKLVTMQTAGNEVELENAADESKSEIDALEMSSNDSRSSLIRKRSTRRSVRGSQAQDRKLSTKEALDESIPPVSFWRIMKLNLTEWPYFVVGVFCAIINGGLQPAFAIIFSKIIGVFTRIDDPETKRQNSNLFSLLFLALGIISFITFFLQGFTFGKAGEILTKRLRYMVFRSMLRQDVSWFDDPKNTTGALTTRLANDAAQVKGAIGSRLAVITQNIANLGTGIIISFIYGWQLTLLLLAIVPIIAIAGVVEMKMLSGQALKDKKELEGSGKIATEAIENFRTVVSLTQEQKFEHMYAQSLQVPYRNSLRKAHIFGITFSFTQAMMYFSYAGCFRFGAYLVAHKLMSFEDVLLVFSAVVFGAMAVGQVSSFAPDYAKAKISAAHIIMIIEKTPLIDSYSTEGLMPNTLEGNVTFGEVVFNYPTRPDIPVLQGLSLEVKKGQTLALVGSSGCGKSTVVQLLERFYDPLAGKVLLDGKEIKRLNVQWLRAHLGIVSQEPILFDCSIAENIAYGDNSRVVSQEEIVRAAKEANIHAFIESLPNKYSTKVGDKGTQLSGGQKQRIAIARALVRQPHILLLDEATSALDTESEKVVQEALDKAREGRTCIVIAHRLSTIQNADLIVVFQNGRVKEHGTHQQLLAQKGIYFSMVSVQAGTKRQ

| SMILES | IC50 (H69AR cells) | inhibition at 3 h, 10 μM (BCRP; human, BCRP-expressing MCF-7/MX cells, probe Hoechst 33342, 10 μM, normalized to 1 μM Ko143 (100%) and DMSO (0%), read-out: Relative inhibition of BCRP) | inhibition at 3 h, 50 μM (BCRP; human, BCRP-expressing MCF-7/MX cells, probe Hoechst 33342, 50 μM, normalized to 1 μM Ko143 (100%) and DMSO (0%), read-out: Relative inhibition of BCRP) | IC50 (A549 cells) | IC50 (MCF-7/MX cells) | IC50 (HCT-15 cells) | inhibition at 10 μM (P-gp; human, P-gp-expressing HCT-15 cells, probe calcein-AM (0.5 μM), 10 μM, normalized to 2.5 μM PSC833 (100%) and DMSO (0%), read-out: Relative inhibition of P-gp) | inhibition at 50 μM (P-gp; human, P-gp-expressing HCT-15 cells, probe calcein-AM (0.5 μM), 50 μM, normalized to 2.5 μM PSC833 (100%) and DMSO (0%), read-out: Relative inhibition of P-gp) | Inhibition of BCRP (in words) (BCRP) | Relative inhibition of P-gp, span over the tested concentrations (P-gp; different concentrations, normalized to PSC833) | inhibition at 3 h (BCRP; human, BCRP-expressing MCF-7/MX cells, probe Hoechst 33342, different concentrations, normalized to Ko143, read-out: Relative inhibition of BCRP, span over the tested concentrations) | fold lower IC50 value than compound 16 (A549 cells; A549 cells) | inhibition at 20 μM (P-gp; human, P-gp-expressing HCT-15 cells, probe calcein-AM (0.5 μM), 20 μM, normalized to 2.5 μM PSC833 (100%) and DMSO (0%), read-out: Relative inhibition of P-gp) | Inhibition of P-gp (in words) (P-gp) |
| --- | --- | --- | --- | --- | --- | --- | --- | --- | --- | --- | --- | --- | --- | --- |
| CCCCCC1Cc2cc(OC)cc(O)c2C(=O)O1 (stereo not drawn) [Compound 16] | 88.5 ± 4.6 µM | 35.3 ± 3.4% | 89.1 ± 4.6% | 78.6 ± 2.2 µM | > 100 µM | > 100 µM | 36.3 ± 5.3% | 81.2 ± 2.7% | – | – | – | – | – | – |
| COc1cc(O)c2c(c1)CCOC2=O [Compound 14] | > 100 µM | – | – | > 100 µM | > 100 µM | > 100 µM | – | – | did not inhibit BCRP | up to 10% | – | – | – | – |
| CCCCCC1Cc2cc(OC)cc(OC)c2C(=O)O1 (stereo not drawn) [Compound 16a] | > 100 µM | – | – | 53.6 ± 5.6 µM | 10.6 ± 0.9 µM | > 100 µM | – | – | – | – | 2.3 to 14.9% | about 1.5 fold | > 20% | – |
| COc1cc(O)c2c(c1)C[C@H](C)OC2=O [Angelicoin B (4), angelicoin B] | > 100 µM | – | – | > 100 µM | > 100 µM | > 100 µM | – | – | no inhibitory activity could be observed | – | – | – | – | did not differ significantly from those of derivative 14 |
